The values below are quoted from earlier work in patent publication US20160128986A1, “METHODS AND COMPOSITIONS RELATED TO THE USE OF LOW HLB SURFACTANTS IN THE PRODUCTION OF SYNTHETIC NANOCARRIERS COMPRISING A RAPALOG” (Selecta Biosciences, Inc., priority 2014, published 2016).

The conditions of the data set: publicly available information.

Take `CCCCCCCCCCCCCCCC(=O)O` [Palmitic Acid]: the “HLB of Surfactant” value is reported as 3.2.
With `CCCCCCCCO[C@@H]1O[C@H](CO)[C@@H](O)[C@H](O)[C@H]1O` [octyl β-D-glucopyranoside, Octyl β-D-glucopyranoside], the “HLB of Surfactant” value is recorded as 12.
As to “Polyethylene glycol hexadecyl ether [Brij 52]”, the “HLB of Surfactant” value is recorded as 5.
As for “Polyethylene glycol oleyl ether [Brij 93]”, the “HLB of Surfactant” value is 4.
On to Polysorbate 80, for which the “HLB of Surfactant” value is 15.
In the case of Sorbitan monolaurate [SPAN 20], the “HLB of Surfactant” value is listed as 8.6.
Turning to Sorbitan monooleate [SPAN 80], the “HLB of Surfactant” value is reported as 4.3.
On to Sorbitan monopalmitate [SPAN 40], for which the “HLB of Surfactant” value was 6.7.
In the case of Sorbitan stearate [SPAN 60], the “HLB of Surfactant” value is reported as 4.7.
